How the values were obtained:
MMTV-Prune1/Wnt1 cells = assay: Real-time cell migration analysis (cell index); assay type: cell-based, murine; details: 10 µM and 100 µM, dose dependent
[1] = tested on: MATH1-Prune1/TP53-/- cells; assay: Real-time cell proliferation assay (cell index, xCELLigence); assay type: cell-based, murine; details: impedance every 2 min over 24 h
Protocol: Primary murine TNBC cells from tumors generated by MMTV-Prune1/Wnt1 mice [Ferrucci et al., 2021] and Primary murine Medulloblastoma Group 3 cells from tumors generated MATH-Prune1/TP53-/- mice were obtained (2 months from tumor onset).
Cellular proliferation rates were determined with the xCELLigence system (Roche). D425-MED, MATH-Prune1/TP53-/- and MMTV-Prune1/Wnt1 cells (8 × 10^3) were treated with increasing concentrations of LEO-AA7.5(S)T, harvested, and then added to a single well of an xCELLigence E-plate 16. The proliferation rates were determined at 2-min intervals by measuring the impedance changes across the electrodes at the bottoms of the wells. These cell index values were calculated by the xCELLigence RTCA software. with vehicle-treated cells were the negative control. Impedance was measured every 2 min over 24 hours. The IC50 values were calculated through nonlinear regression analysis performed with Graph Pad Prism 9 ([inhibitor] vs. response (three parameters). Data are means ± SD of three independent experiments.

c-Prune1 (354-453) = biological target: T1, c-Prune1 (354-453) (Homo sapiens, UniProt Q86TP1); assay: NMR and microscale thermophoresis interaction study; assay type: binding; details: KD not given
T1 construct: 20 µM of c-Prune1 (354-453) protein was labelled with 60 µM of NT-647-NHS reactive dye; made in house
T1 sequence (Q86TP1 354-453): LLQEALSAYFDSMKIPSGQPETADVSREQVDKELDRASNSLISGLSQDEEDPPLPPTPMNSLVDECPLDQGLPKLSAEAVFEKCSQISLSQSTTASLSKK
Protocol: For interaction studies, samples (total volume, 600 µL) were prepared in 5-mm NMR tubes, using 1mM of AA7.5 and 10µM of C-prune1 (AA7.5/C-prune1 molar ratio of 100:1) in H2O/^2H2O mixture at pH 6.8. STD spectra were acquired with 512 scans with onresonance irradiation at -0.5 ppm for selective saturation of protein resonances and off-resonance irradiation at 30 ppm for reference spectra. A train of 40 Gaussian-shaped pulses of 50 milliseconds with 1-millisecond delay between pulses were used, for a total saturation time of 2 seconds. […]
1H and STD spectra of AA7.5 alone were acquired as reference. […] Relative STD values were calculated by dividing STD signal intensities by the intensities of the corresponding signals in a 1D 1H NMR reference spectrum of the same sample recorded with 512 scans and similarly processed. […] To determine the per residue chemical shift perturbation upon binding and account for differences in spectral widths between ^15N and ^1H resonances, weighted average chemical shift differences, ΔδHN , were calculated for the amide ^15N and ^1H resonances, using equation: ΔδHN = ([((ΔHN))^2+((0.17×Δ^15N))^2])^((1)/(2)) [formula] where ΔH and ΔN are the differences between free and bound chemical shifts. […]

COc1ccc(CNc2ncnc(N3CCC[C@H](CO)C3)n2)cc1.Cl [LEO-AA7.5(S)T, (S)-(1-(4-((4-methoxybenzyl)amino)-1,3,5-triazin-2-yl)piperidin-3-yl)methanol HCl salt]
migration rate (MMTV-Prune1/Wnt1 cells): reduction
half maximal inhibitory concentration (IC50) for the inhibition of cell proliferation index [1]: 31.1 µM
binding to Prune1 protein at its Carboxyl-terminus domain (c-Prune1 (354-453)): binds Prune1 protein

— patent publication EP4361137A1, “PRUNE1 INHIBITORS AND THERAPEUTIC USE THEREOF” (CEINGE Biotecnologie Avanzate Franco Salvatore s.c. a r.l., priority 2022, dated 2024)
